Experiment: Protective effect: time to perforation of a sheet of wheat starch exposed to concentrated HCl
Settings: end point a clear-cut hole
Protocol: The barrier-like effect of gelatin was experimentally assessed. A Sheet of wheat starch was exposed to a concentrated solution of HCl. The protective action was measured as an extension of time to perforation in comparison to control. The end consisted of a clear-cut hole.
The new threshold matched the potentially dangerous HCl concentration in the stomach at the above-mentioned ration, corresponding to about 6 parts of gelatin to 1 part of TCP.

O=P([O-])([O-])[O-].O=P([O-])([O-])[O-].[Ca+2].[Ca+2].[Ca+2] [TCP, tricalcium phosphate]
protective action, extension of time to perforation in comparison to control: almost equally effective

— patent US10973850B2, “Composition comprising tricalcium phosphate and gelatin for use in a method for the treatment of dyspepsia and related disorders” (S.B.M. S.R.L., priority 2015, dated 2021)
